This note sets out measurements from the METLIN SMRT retention time set (Domingo-Almenara et al. 2019).

Each structure is given as a SMILES string.

This series is described as follows: gradient 5% acetonitrile 3 min, to 50% in 2 min, to 85% in 15 min, held 3 min, 100 µL/min. The note with it: column: Zorbax Extend-C18 2.1 x 50 mm; eluents: water / acetonitrile, 0.1% formic acid. The method, boiled down:
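Values are retention times taken from adduct peaks that software picked and an analyst inspected. The pure standards were run as mixtures of ~100 molecules on HPLC linked to a quadrupole time-of-flight mass spectrometer, in positive and negative ionization mode. A Zorbax Extend-C18 column (2.1 × 50 mm, 1.8 μm) was used at 100 μL/min with water and acetonitrile, each including 0.1% formic acid.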
As to `O=C(Cc1ccc(F)cc1)Nc1cc(-c2cccnc2)no1`, the RP-LC retention time was determined as 730 s. Compound `C[C@@H]1C(=O)O[C@H]2[C@H](O)[C@@]34C5C[C@@H](C(C)(C)C)[C@]36[C@H](OC(=O)[C@@H]6O)OC4(C(=O)O5)[C@@]12O` (stereo not given in full) showed an RP-LC retention time of 802 s.

As to `CCOC(C)C(/C=N/NC(N)=S)=N/NC(N)=S` (stereo not given), the RP-LC retention time was found to be 654 s. The compound `CN1CC[C@@H]2CN3CCc4cccc(c43)[C@@H]2C1` yielded an RP-LC retention time of 644 s. Turning to `COc1cccc(N2CCN(C(=O)CN3CCN(Cc4ccc(C)cc4)C(=O)C3=O)CC2)c1`, the RP-LC retention time came out at 772 s. The compound `O=C(CCc1nc2sc3c(c2c(=O)[nH]1)CCCCC3)N1CCN(C2CCCCC2)CC1` came in with an RP-LC retention time of 610 s. Under `CNC(=O)CCc1nc2ccccc2n(CC(=O)NCc2ccc(C)cc2)c1=O` stands 695 s. In turn, `CCn1nc(C)c(CNC(=O)Nc2cccc(C(=O)OC)c2)c1C` showed an RP-LC retention time of 663 s. `Cc1ccc(S(=O)(=O)N2C(=O)CCC2C(=O)Nc2cccc3ccccc23)cc1` (stereo not given): the RP-LC retention time is 933 s. Next, `O=C1CCCN1CCCNc1ccc2nnc(CCC(=O)N3CCN(c4ccccn4)CC3)n2n1`: 557 s. On to `CCOc1ccc(NC(=O)C2CCCN(c3nnc4ccc(Cl)cn34)C2)cc1` (stereo not given), for which the RP-LC retention time came out at 683 s. Consider `Cn1c(=O)oc2cc(-c3noc(-c4cc(F)ccc4F)n3)ccc21`, for which the RP-LC retention time is 1010 s.

As for `CC(O)(CNC(=O)NCc1cccs1)C1CC1` (stereo not given), the RP-LC retention time was determined as 632 s. Take `Cc1nc(-c2cccs2)c(CC(=O)N2CCN(c3ccccn3)CC2)s1`: the RP-LC retention time came out at 607 s. Turning to `Cn1nccc1-c1cccc(-c2noc(/C=C/c3ccccc3)n2)c1`, the RP-LC retention time came out at 1160 s. Under `COc1ccc(NC(=O)c2cnc(N3CCC4(CC3)OCCO4)nc2N)cc1` stands 635 s; under `Cn1cc(-c2cc3n(n2)CCC(=O)N3CC(=O)NCCc2c[nH]c3ccccc23)c2ccccc21`, 825 s; under `Cc1cccc(NC(=O)Cn2c(N)nc(C)cc2=O)c1`, 601 s. `Cc1ccc(Cl)cc1NC(=O)N1CC=C(c2cn(C)c3ncccc23)CC1` had an RP-LC retention time of 773 s. Compound `CNC(=O)C1CCN(c2nc3ncn(CC(=O)NC(C)C)c(=O)c3s2)CC1` came in with an RP-LC retention time of 570 s. Take `O=C(NC1CCN(c2cc(-c3cccs3)[nH]n2)C1)c1cccc(OC(F)(F)F)c1` (stereo not given): the RP-LC retention time was determined as 828 s. Next, `CCC(C)NC(=O)C1CCN(c2cnc(N3CCOCC3)nc2)CC1` (stereo not given): 638 s; `CCOc1cc(=O)n2c(c1C(=O)Nc1ccc(C(=O)OC)cc1)CCCC2`: 707 s.

Compound `COc1cccc(-n2ccc(=O)c(-c3nc(-c4cccc(OC)c4OC)no3)n2)c1` gave an RP-LC retention time of 826 s. The compound `COCc1noc(CC2CCOC3(CCN(Cc4sccc4C)CC3)C2)n1` (stereo not given) displayed an RP-LC retention time of 636 s.

Take `Cc1ccc(NC(=O)C2CCN(c3cncnc3N3CCOCC3)CC2)cc1C`: the RP-LC retention time worked out at 670 s. In the case of `COc1ccc(-c2noc(-c3nc(-c4ccccc4F)no3)n2)cc1OC`, the RP-LC retention time worked out at 1110 s. As for `Cc1ccc(NC(=O)COc2cc(C(F)(F)F)c3c(C)nn(C)c3n2)c(C)c1`, the RP-LC retention time came to 1060 s. The compound `COc1cc([C@@H]2c3cc4c(cc3[C@H](O)[C@@H](CO)[C@@H]2C(=O)NCc2ccc(C)o2)OCO4)cc(OC)c1OC` registered an RP-LC retention time of 674 s. Consider `Cc1cc(Cl)ccc1S(=O)(=O)N1CCN(c2nc3ccncc3n(C)c2=O)CC1`, for which the RP-LC retention time came out at 615 s. Compound `CC(=O)N1CCC2(CC1)CC(CCO)CCO2` (stereo not given) displayed an RP-LC retention time of 575 s. On to `O=C(Nc1nnc(C2=COCCO2)o1)c1ccco1`, for which the RP-LC retention time was determined as 559 s. On to `Cc1ccc2nc(-c3cccc(F)c3)cc(C(N)=O)c2c1`, for which the RP-LC retention time is 880 s. The compound `CCOc1ccccc1NC(=O)N1CCC2(CC1)NC(=O)c1cc(F)ccc1N2C` showed an RP-LC retention time of 817 s.

Turning to `COc1ccc(-c2nnc(COc3ccc(NC(=O)c4ccnc(Cl)c4)cc3)o2)cc1`, the RP-LC retention time was determined as 868 s. `O=C(NCC1CCCCC1)c1ccc(NC(=O)C2CCC2)cc1N1CCOCC1` showed an RP-LC retention time of 930 s. For `CCCNC(=O)c1cn(-c2ccc(-c3nc(C4CC4)no3)cn2)cn1`, the RP-LC retention time was 815 s. Under `Cc1ccc2cc(CCC(=O)N3CCN(C(=O)c4ccco4)CC3)c(=O)[nH]c2c1` stands 655 s; under `CN(C)CCNC(=O)c1ccc2c(c1)nnn2Cc1ccccc1`, 567 s; under `Cc1ccc(Nc2nc(-c3ccc(Br)cc3)cs2)nc1`, 1080 s. Under `COCCn1c(SCc2ccccc2Cl)nc2cc(C(=O)NC(C)C)ccc2c1=O` stands 1010 s; under `CCn1ccc2c(cc(C(=O)Nc3ccc(Br)cc3)n2C)c1=O`, 844 s; under `Cc1ccc(F)cc1NS(=O)(=O)c1cc2c(s1)CCN(C(=O)C1CC1)C2`, 839 s.

As for `COc1ccc(-c2cc3nn(CC(=O)Nc4cccc(Cl)c4)c(=O)n3c(C)n2)cc1`, the RP-LC retention time was found to be 979 s. Compound `COc1ccc(C)cc1NC(=O)Cn1nc2c(Oc3cc(C)cc(C)c3)nccn2c1=O` showed an RP-LC retention time of 1050 s.

`COC(=O)c1ccc(S(=O)(=O)NCc2nc(C)no2)cc1` showed an RP-LC retention time of 659 s. As for `Brc1ccc(C(c2nnc(-c3ccccc3)o2)N2CCN(c3ccccn3)CC2)cc1` (stereo not given), the RP-LC retention time worked out at 800 s. `COc1ccc(C2(C(=O)Nc3cc(-c4nnc(C)o4)sc3C)CC2)cc1` displayed an RP-LC retention time of 989 s. As for `O=C(O)CSc1nnc(COc2cccc3cccnc23)n1-c1ccccc1`, the RP-LC retention time amounted to 577 s. `CC1CCN(S(=O)(=O)c2ccc3nn(Cc4ccc(F)cc4)c(=O)n3c2)CC1` registered an RP-LC retention time of 1020 s.

Compound `COc1ccc(C(=O)NC2CCN(c3cc(-c4cccs4)[nH]n3)C2)cc1` (stereo not given) had an RP-LC retention time of 703 s. In the case of `CCc1nc(N)n(CC(=O)Nc2cccc(C)c2)c(=O)c1C`, the RP-LC retention time is 610 s.

`Cc1cccc(S(=O)(=O)Nc2cccc(-c3cn4ccccc4n3)c2)c1` registered an RP-LC retention time of 644 s. In turn, `COc1ccc(CC(=O)N2C[C@@H]3C[C@H]2C[C@@H]3NS(C)(=O)=O)cc1` gave an RP-LC retention time of 647 s. For the compound `COCCCNC(=O)N1CCCN(C2=NS(=O)(=O)C(c3ccccc3)=C2C)CC1`, the RP-LC retention time was determined as 679 s.

With `O=S(=O)(c1ccc(C(F)(F)F)cc1)N1CC(c2nc(-c3ccncc3)no2)C1`, the RP-LC retention time stood at 888 s. In the case of `O=C(NC1CCCN(c2cc(N3CCCC3)ncn2)C1)c1ccccn1` (stereo not given), the RP-LC retention time was 606 s. Turning to `O=C(CN1C(=O)CCS(=O)(=O)c2ccccc21)Nc1ccc(C(F)(F)F)cc1`, the RP-LC retention time is 843 s. `Cc1ccc(Sc2nccnc2N2CCCC(C(=O)NC(C)C)C2)cc1` (stereo not given): the RP-LC retention time came out at 996 s. Turning to `COc1ccc(-n2cc(C(=O)OCC3CCCO3)c3ccccc3c2=O)cc1` (stereo not given), the RP-LC retention time turned out to be 993 s. In the case of `CCn1cc(-c2ccc(Cl)cc2)cc1C(=O)N1CCOCC1`, the RP-LC retention time was 953 s. Next, `CCOC(=O)c1cnc2nc(C)ccc2c1Nc1ccc(OC)c(OC)c1`: 587 s; `O=C(Nc1ccc(OC(F)(F)F)cc1)C1CCCN(c2cc(-n3cccn3)ncn2)C1` (stereo not given): 992 s; `CS(=O)(=O)NCc1ccc2c(c1)CCN2C(=O)c1ccc(Cl)cc1`: 794 s. Take `CCc1ccc(S(=O)(=O)c2cnc(N3CCC4(CC3)OCCO4)nc2N)cc1`: the RP-LC retention time was 944 s. Compound `COc1cccc(N2CCN(C(=O)c3cc(C4CC4)[nH]n3)CC2)c1` showed an RP-LC retention time of 813 s. As for `O=C(Cc1ccccc1)NC(c1ccccc1)c1ccc2cccnc2c1O` (stereo not given), the RP-LC retention time stood at 822 s. For `CCOC(=O)c1c(C)[nH]c(CCC(=O)Nc2cc(F)ccc2F)c1C`, the RP-LC retention time turned out to be 933 s.

As for `Cc1cnc(C2CN(C(=O)c3ccsc3)C2)n1CC1CC1`, the RP-LC retention time came out at 595 s. Compound `Cc1ccc(NC(=O)N2CCC(N3CCN(Cc4ccccn4)C(=O)C3=O)CC2)c(Cl)c1` had an RP-LC retention time of 876 s. Compound `CCCC1CCC(C(=O)Nc2ccc3nc(N4CCN(c5ncccn5)CC4)cc(C)c3c2)CC1` (stereo not given) displayed an RP-LC retention time of 878 s.

Regarding `Cc1ccc(NC(=O)Cn2nc3c(Oc4ccc(C(C)C)cc4)nccn3c2=O)c(C)c1`, the RP-LC retention time is 1050 s. Under `COc1ccc(NC(=O)Nc2cccc(-c3ccc(N4CCOCC4)nn3)c2)cc1` stands 658 s; under `CNC(=O)N1CCCN(S(C)(=O)=O)CC1`, 533 s. As to `O=C(c1ccccc1F)N1CCC(COCc2ccccc2)CC1`, the RP-LC retention time turned out to be 945 s. As for `O=C(CCn1c(N2CCCC2)nc2ccsc2c1=O)NCc1ccc(F)cc1F`, the RP-LC retention time amounted to 779 s. For `CCc1ccc(C(C)NC(=O)C2CCN(c3cncnc3N3CCOCC3)CC2)cc1` (stereo not given), the RP-LC retention time turned out to be 697 s. For `Cc1nnc(-c2ccc3ccn(CC(=O)Nc4ccc(F)c(Cl)c4)c3c2)o1`, the RP-LC retention time was 861 s. On to `CCN(CC)c1cc(CNC(=O)Nc2cc(OC)cc(OC)c2)ccn1`, for which the RP-LC retention time is 620 s. `Cc1nc(-c2csc(S(=O)(=O)N3CCC(C(=O)NCc4cccnc4)CC3)c2)no1` yielded an RP-LC retention time of 618 s.
